In patent US20130040390A1, “CULTURE MEDIUM SUPPLEMENT AND USE THEREOF” (GUANGZHOU INSTITUTES OF BIOMEDICINE AND HEALTH, CHINESE …, priority 2010, published 2013):

Assays:
Type in all cases: cell-based, mouse
[1] = tested on: Oct4-GFP MEFs; experiment: iPS efficiency test: MEFs infected with SKO viruses, reprogrammed clones counted / GFP cell ratio by FCM; conditions: for recommended working concentration: from dose-response in Basal3.0, day 10; for effect on the iCD1 reprogramming efficiency: added to iCD1: A83-01 0.5 μM, valproic acid 1 mM, 2% fetal bovine serum; for effect on the reprogramming efficiency: ingredient left out of iCD1, clones at day 8 after SKO infection
From the text: Somatic cell type used in reprogramming is OG2 MEFs of no more than 3 passages. OG2 mice are transgenic mice with green fluorescent protein (GFP) gene linked after the promoter of Oct4 gene specifically expressed by stem cell. At a later stage of the reprogramming, endogenous Oct4 of OG2 MEF is activated, and the green fluorescent protein is concomitantly expressed, so the cells or reprogrammed clones appear green when observed under a fluorescence microscope. The reprogramming efficiencies under different conditions can be compared by a research by directly counting the reprogrammed clones, that is, the green fluorescent clones under a fluorescence microscope, or by analyzing the ratio of the green fluorescent cells through flow cytometry (FCM).
Cell assay and preparation of viruses are as follows. […] 6-18 hrs after the cell seeding, the cells are infected with the viruses carrying a mouse reprogramming factor according to the cell density and state. The infection is carried out in two rounds, 24 hrs after the first round of infection, the second round of infection is carried out, and the virus fluid is replaced by various test media 24 hrs after the second round of infection. The day of replacing the virus fluid is recorded as day 0 (D0), and the GFP fluorescent clones are counted in the original wells or the ratio of the GFP fluorescent cells are analyzed by flow cytometry (FCM) at different times after infection as desired.
The preparation of virus includes transfecting virus packaging cells (PlatE) with reprogramming factor plasmid cloned onto a PMX vector, refreshing the culture media 12-16 hrs after infection, using the culture collected 48 hrs after the transfection as a virus fluid for the first infection, and using the additional culture collected 24 hrs after adding fresh culture as a virus fluid for the second infection. […]

[2] = tested on: Oct4-GFP MEFs; experiment: Growth curves of SKO-infected embryonic fibroblasts in iCD1 lacking single ingredients; conditions: ingredient left out of iCD1, cells counted at D0, day 3, day 6
From the text: In order to determine whether the effects of the above six substances on reprogramming are cell growth dependent or independent, growth curves of the embryonic fibroblasts infected with reprogramming factor SKO and then cultured respectively in 9 culture states including iCD1, iCD1 without vitamin C, iCD1 without bFGF, iCD1 without CHIR99021, iCD1 without lithium chloride, iCD1 without vitamin B12, iCD1 without thiamine, iCD1 without all of the six ingredients, and mES were plotted. 2×10^4 initial Oct4-GFP MEFs were infected with SKO viruses, and then cultured respectively in the above 9 culture media. The cells were digested respectively at the day of infection and medium replacement (day D0) and days 3 and 6 after infection, and the cells per well were counted. The replications n in each group of test are 3, and the error bar represents standard deviation (SD).

[3] = tested on: Oct4-GFP MEFs; experiment: iPS efficiency test: MEFs infected with SKO viruses, reprogrammed clones counted / GFP cell ratio by FCM; conditions: 1×10^4 MEFs, clones at day 10

Row | Compound | recommended working concentration [1] | effect on the reprogramming efficiency [1] | further results
1 | O=C(O)CCCC[C@@H]1CCSS1 (racemic) [lipoic acid] | 0.2 µg/mL |  | 
2 | Cc1cccc(-c2nn(C(=S)Nc3ccccc3)cc2-c2ccnc3ccccc23)n1 [A83-01, reference compound] |  |  | effect on the iCD1 reprogramming efficiency ([1]; clones at day 10): cannot further improve the iCD1 reprogramming efficiency
3 | Cc1c[nH]c(-c2cnc(NCCNc3ccc(C#N)cn3)nc2-c2ccc(Cl)cc2Cl)n1 [CHIR99021, reference compound] |  | especially remarkable | effect on reprogramming efficiency of Basal3.0 ([1]; added to Basal3.0, clone number and cell ratio as indexes): can significantly improve the reprogramming efficiency; effect of high dose on the reprogramming efficiency ([1]; in iCD1, 0-12 μmol/ml, clones at day 10): inhibition effect on the reprogramming efficiency; effect on cell growth [2]: different degrees of effects on cell growth; optimum effect concentration ([3]; in iCD1, 0-12 μmol/ml): about 3 mM
4 | NCCO [ethanolamine] | 1 µg/mL |  | 
5 | CCCCC/C=C\C/C=C\CCCCCCCC(=O)O [linoleic acid] | 1 µg/mL |  | 
6 | [Cl-].[Li+] [lithium chloride, Lithium chloride] | 5 mmol/mL | have effects on the reprogramming efficiency | 
7 | N[C@@H](CCC(=O)N[C@@H](CS)C(=O)NCC(=O)O)C(=O)O [reduced glutathione] |  |  | recommended working concentration ([1]; anti-oxidants): 1500 µg/mL
8 | Cc1ncc(C[n+]2csc(CCO)c2C)c(N)n1 [thiamine] |  | have effects on the reprogramming efficiency | recommended working concentration ([1]; anti-oxidants): 9000 µg/mL
9 | CCCC(CCC)C(=O)O [valproic acid (VPA), valproic acid, reference compound] |  |  | effect on the iCD1 reprogramming efficiency ([1]; clones at day 10): cannot further improve the iCD1 reprogramming efficiency
10 | O=C1O[C@H]([C@@H](O)CO)C(O)=C1O [vitamin C, ascorbic acid] | 50 µg/mL | especially remarkable | concentration above which an increase has no obvious improvement effect on the reprogramming efficiency ([1]; in iCD1, 0-100 μg/ml, 2×10^4 MEFs, clones at day 10): higher than 25 μg/ml; effect on cell growth [2]: no obvious effect on cell growth
11 | EGF: epidermal growth factor |  |  | effect on reprogramming (receptor tyrosine kinase family growth factor) ([1]; added to iCD1 without receptor tyrosine kinase, clones at day 10): can also promote the reprogramming
12 | bFGF: basic fibroblast growth factor | 0.005 µg/mL | especially remarkable | period of the reprogramming in which it mainly plays a role ([1]; added to iCD1 at different times from days 0 to 10, clones at day 10, n=6): 0 to 8 days; effect on cell growth [2]: different degrees of effects on cell growth; final concentration above which an increase has no obvious improvement effect on the reprogramming efficiency ([3]; in iCD1, 0-10 ng/ml): higher than 5 ng/ml
13 | insulin: recombinant human insulin (SIGMA Inc.) preferred | 50 µg/mL |  | 
14 | vitamin A | 0.1 µg/mL |  | 
15 | vitamin B12 | 1.4 µg/mL | have effects on the reprogramming efficiency | 
16 | vitamin E |  |  | recommended working concentration ([1]; anti-oxidants): 1000 µg/mL
